Conditions: 20° C.

Q: For `COC(=O)C1CO1` (stereo not shown) [MEP, Methyl Epoxy Propionate], which “solubility of MEP in water” value is on record?
A: 43 g/10 g of H2O

Source: US8614342B2, “Process for preparing epoxycarboxylic esters” (BASF SE, priority 2012, dated 2013)
